Source: patent publication US20060223879A1, “Non-steroidal farnesoid x receptor modulators” (priority 2002, published 2006)
Several values for one entry are separate records, joined by “and”; a condition that tells them apart may be missing. Identical values can stand only once. Entries after “also recorded” stand apart in the source; their conditions may differ. Like-named read-outs stand apart in the source and are kept apart here.

Target: T1, FXR (Homo sapiens, UniProt Q96RI1)
T1 construct: using a full length FXR on a natural response element; expressed in transfected cells
T1 sequence (Q96RI1 1-486): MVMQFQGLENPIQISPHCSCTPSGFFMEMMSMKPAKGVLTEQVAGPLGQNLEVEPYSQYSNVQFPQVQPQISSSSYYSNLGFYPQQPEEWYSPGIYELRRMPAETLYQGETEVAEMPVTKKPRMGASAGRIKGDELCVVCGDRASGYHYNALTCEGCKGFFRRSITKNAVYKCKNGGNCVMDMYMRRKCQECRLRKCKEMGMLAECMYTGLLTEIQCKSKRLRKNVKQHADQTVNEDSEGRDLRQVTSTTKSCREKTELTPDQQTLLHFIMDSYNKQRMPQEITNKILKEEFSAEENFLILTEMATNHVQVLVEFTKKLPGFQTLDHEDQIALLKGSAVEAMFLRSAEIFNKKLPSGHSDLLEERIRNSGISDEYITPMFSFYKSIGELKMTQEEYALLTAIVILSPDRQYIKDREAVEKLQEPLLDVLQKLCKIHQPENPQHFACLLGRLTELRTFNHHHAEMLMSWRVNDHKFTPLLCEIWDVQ
Experiment: cell-based transcription assay, FXR responsive promoter linked to a luciferase reporter
Set-up: RE: scale not given here
Details: for RE: RE not defined in the source
From the text: In addition to ensuring that only cell permeable compounds were selected for further optimization, this approach allows for the detection of FXR activation in a natural system (i.e., correct folding of the protein and in the presence of a complete compliment of co-activators and co-repressors).
The feasibility of creating high throughput screens (XIS) for ORs was explored using FXR as a candidate orphan receptor (OR) with a known activator, chenodeoxycholic acid (CDCA) as a ligand. The screen is based on the co-transfection of a full-length receptor with the reporter vector containing a natural hormone response element under a minimal eukaryotic promoter. […] Using this 384-well format, the high throughput screening (HTS) approach to FXR as a candidate OR was employed. […] A central question in the feasibility studies is whether this library is suitable for screening for nuclear receptor ligands. Samples of this library were first reformatted into a 384-well format and then subjected to the FXR cell-based assays described above and assessed for FXR-mediated transcriptional activity. Cells were exposed to approximately 10 μM of sample for 18 hrs prior to washing and luciferase analysis.
EC50 values were determined with Prism 3.0 software via the activity of the subject compound in the previously described cell based assay.

[1] = Tables 1-15, FXR activation, cell-based reporter assay, read-out: EC50
[2] = library screening hits and leads, read-out: activity (EC50)
[3] = FXR activation, cell-based reporter assay, read-out: EC50

| Structure (SMILES) | EC50 [1] [nM] | RE (Tables 1-15) | EC50 [2] [nM] | FXR activation (in words) (cell-based reporter assay) | EC50 [3] |
| --- | --- | --- | --- | --- | --- |
| COC(=O)/C=C/c1cccc(N(Cc2ccc(-c3ccc(CC(C)C)cc3)cc2)C(=O)C(C)C)c1 [Compound 263] | 343 | 0.59 |  |  |  |
| COc1cc(CN(C(=O)Nc2ccccc2)c2ccccc2)cc2c1OC(C)(C)C=C2 [Compound 25] |  |  | 5000 to 10000 |  |  |
| COC(=O)C=Cc1cccc(N(Cc2ccc(C=CC(=O)OC(C)(C)C)cc2OS(C)(=O)=O)C(=O)C2CCCCC2)c1 [Compound 166] | > 1000 | 0.16 |  |  |  |
| COC(=O)/C=C/c1cccc(N(Cc2ccc(-c3ccc(OC(F)(F)F)cc3)cc2)C(=O)NC(C)C)c1 [Compound 252] | 7530 | 0.21 |  |  |  |
| CCOc1cccc(-c2ccc(CN(C(=O)C(C)C)c3cccc(/C=C/C(=O)OC)c3)cc2)c1 [Compound 227] | 173 | 1.03 |  |  |  |
| COC(=O)/C=C/c1cccc(N(Cc2ccc(-c3cccc(C)c3)cc2)C(=O)C2CCCCC2)c1 [Compound 238] | 109 | 1.43 |  | excellent activity |  |
| COC(=O)/C=C/c1cccc(N(Cc2ccc(/C=C/C(=O)OC(C)(C)C)cc2)C(=O)NC(C)C)c1 [Compound 145] | 212 | 1.96 |  |  | 127 to 250 nM and 205 to 236 nM |
| COC(=O)C=Cc1cccc(N(Cc2ccc(C=CC(=O)OC(C)(C)C)cc2OC)C(=O)C2CCCCC2)c1 [Compound 162] | > 1000 | 0.14 |  |  |  |
| COC(=O)C=Cc1cccc(N(Cc2ccc(C=Cc3ccccn3)cc2)C(=O)NC(C)C)c1 [Compound 209] | 575 | 0.68 |  |  |  |
| COC(=O)/C=C/c1cccc(N(Cc2ccc(/C=C/c3ccc(C)cc3)cc2)C(=O)NC(C)C)c1 [Compound 176] |  | 0.10 |  |  |  |
| COC(=O)/C=C/c1cccc(N(Cc2ccc(-c3cccc(Cl)c3)cc2)C(=O)C(C)C)c1 [Compound 233] |  |  |  | excellent activity |  |
| COC(=O)/C=C/c1cccc(N(Cc2ccc(/C=C/c3ccc(F)cc3)cc2)C(=O)NC(C)C)c1 [Compound 206] | 348 | 0.91 |  |  |  |
| COc1c(CN(C(=O)C2CCCCC2)c2ccccc2)ccc2c1OC(C)(C)C=C2 [Compound 27] |  |  | 5000 to 10000 | among the most active at this stage |  |
| COC(=O)/C=C/c1cccc(N(Cc2ccccc2)Cc2ccc3c(c2OC)OC(C)(C)C=C3)c1 [Compound 78] |  |  |  | inactive |  |
| COC(=O)C=Cc1cccc(N(Cc2ccc(C=Cc3ccccc3)cc2)C(=O)C2CCCCC2)c1 [Compound 121] |  | 1.55 |  | excellent activity; also recorded: among the most active | 36 nM |
| COC(=O)C=Cc1cccc(N(Cc2ccc(CCC(=O)OC(C)(C)C)cc2)C(=O)C2CCCCC2)c1 [Compound 159] | 240 | 1.56 |  | two-fold decrease in potency from the parent compound 105 |  |
| COC(=O)/C=C/c1cccc(N(Cc2ccc(-c3ccc(F)c(Cl)c3)cc2)C(=O)NC(C)C)c1 [Compound 249] | 3050 | 0.41 |  |  |  |
| COC(=O)/C=C/c1cccc(N(Cc2ccc(-c3ccc(OC(F)(F)F)cc3)cc2)C(=O)C2CCCCC2)c1 [Compound 250] | 264 | 1.04 |  |  |  |
| COC(=O)/C=C/c1cccc(N(Cc2ccc(-c3ccc(C)cc3)cc2)C(=O)C(C)C)c1 [Compound 236] | 118 | 1.48 |  | excellent activity |  |
| COC(=O)C=Cc1cccc(N(Cc2ccc(C=Cc3scnc3C)cc2)C(=O)C(C)C)c1 [Compound 211] | 228 | 0.32 |  |  |  |
| COC(=O)/C=C/c1cccc(N(C)C(=O)C2CCCCC2)c1 [Compound 147] | > 1000 | 0.09 |  |  |  |

| Structure (SMILES) | EC50 [1] [nM] | RE (Tables 1-15) | EC50 [2] [nM] | FXR activation (in words) (cell-based reporter assay) | EC50 [3] |
| --- | --- | --- | --- | --- | --- |
| COC(=O)C=Cc1cccc(N(Cc2ccc3c(c2OC)OC(C)(C)C(OC(C)=O)C3N2CCCCC2)C(=O)c2ccccc2)c1 (stereo not shown) [Compound 101] |  |  |  | Nor did the addition of H-bond acceptors such as in 89, 90, 95, 99 and 101 improve the ability of the parent compound 68 to activate FXR |  |
| COC(=O)C=Cc1cccc(N(Cc2ccc(C=Cc3scnc3C)cc2)C(=O)NC(C)C)c1 [Compound 212] | 356 | 0.42 |  |  |  |
| COC(=O)C=Cc1cccc(N(Cc2ccc(C=Cc3ccccn3)cc2)C(=O)C(C)C)c1 [Compound 208] | 310 | 0.62 |  |  |  |
| COC(=O)/C=C/c1cccc(N(Cc2ccc(/C=C/c3cc(C(F)(F)F)cc(C(F)(F)F)c3)cc2)C(=O)C(C)C)c1 [Compound 184] | 1950 | 0.13 |  |  |  |
| COC(=O)/C=C/c1cccc(N(Cc2ccc(-c3ccc(N(C)C)cc3)cc2)C(=O)NC(C)C)c1 [Compound 261] | 162 | 1.01 |  |  |  |
| COc1c(CN(C(=O)CC(C)C)C(C)C)ccc2c1OC(C)(C)C=C2 [Compound 21] |  |  | 5000 to 10000 |  |  |
| CCOCC=Cc1ccc(CN(C(=O)C2CCCCC2)c2cccc(C=CC(=O)OC)c2)cc1 [Compound 157] |  | 2.06 |  |  | 198 nM |
| COC(=O)/C=C/c1cccc(N(Cc2cc(OC)cc(OC)c2)C(=O)C2CCCCC2)c1 [Compound 118] |  |  |  |  | 606 nM |
| COC(=O)C=Cc1cccc(N(Cc2ccc(C=CC(=O)NCC(C)C)cc2)C(=O)C2CCCCC2)c1 [Compound 155] | > 1000 | 1.85 |  |  |  |
| COC(=O)C=Cc1cccc(N(Cc2ccc3c(c2OC)OC(C)(C)C(OC(C)=O)C3Sc2ccccc2)C(=O)c2ccccc2)c1 (stereo not shown) [Compound 99] |  |  |  | Nor did the addition of H-bond acceptors such as in 89, 90, 95, 99 and 101 improve the ability of the parent compound 68 to activate FXR |  |
| COC(=O)/C=C/c1cccc(N(Cc2ccc3c(c2OC)OC(C)(C)C=C3)C(=S)C2CC2)c1 [Compound 83] |  |  |  | inactive |  |
| COCC=Cc1cccc(N(Cc2ccc(C=CC(=O)OC(C)(C)C)cc2)C(=O)C2CCCCC2)c1 [Compound 136] |  | 1.88 |  |  | 243 nM |
| COC(=O)/C=C/c1cccc(N(Cc2ccc(/C=C/c3cccc(Cl)c3)cc2)C(=O)C(C)C)c1 [Compound 181] | 264 | 1.09 |  | excellent activity |  |
| COC(=O)/C=C/c1cccc(N(Cc2ccc(-c3cccc(OC)c3)cc2)C(=O)C2CCCCC2)c1 [i] | 77 | 1.51 |  |  |  |
| COC(=O)/C=C/c1cccc(N(Cc2cccc(OC)c2)C(=O)C2CCCCC2)c1 [Compound 115] | > 1000 | 0.11 |  |  |  |
| COC(=O)/C=C/c1cccc(N(Cc2ccc3c(c2OC)OC(C)(C)C=C3)C(=O)C2CC2)c1 [Compound 29] |  |  |  | substantially better activator of FXR than compound 26; also recorded: capable of activating FXR to a significant extent |  |
| COC(=O)/C=C/c1cccc(N(Cc2ccc(-c3ccc(F)c(Cl)c3)cc2)C(=O)C2CCCCC2)c1 [Compound 247] | 66 | 1.67 |  | excellent activity |  |
| COC(=O)/C=C/c1cccc(N(C(=O)C2CCCCC2)c2ccc3ccccc3c2)c1 [Compound 111] |  | 0.41 |  |  | 680 nM |
| COC(=O)/C=C/c1cccc(N(Cc2ccc(/C=C/C(=O)OC(C)(C)C)cc2)C(=O)C2CC2)c1 [Compound 140] | 250 | 1.88 |  |  | 127 to 250 nM |
| COc1cc(CN(CC(C)C)C(=O)C2CCCCC2)cc2c1OC(C)(C)C=C2 [Compound 16] |  |  | 5000 to 10000 |  |  |
